Source: ChEMBL document CHEMBL1147331, “Cytotoxic and antimalarial bisbenzylisoquinoline alkaloids from Stephania erecta” (J Nat Prod, 1993)
In brackets after ≈: the same amount, converted by molar mass.

Legend:
[1] = Cytotoxicity against mouse P388 cells after 2 days by sulforhodamine B assay; assay type: cell-based; details: read-out: ED50
Plasmodium falciparum [2] = assay: Antimalarial activity after 24 hrs against chloroquine-resistant Plasmodium falciparum W2 infected type A+ human erythrocytes by [3H]hypoxanthine uptake; assay type: functional; details: read-out: ED50 (the source's name)
[3] = Selectivity index, ratio of ED50 for human LUC1 cells to ED50 for chloroquine-resistant Plasmodium falciparum W2; assay type: toxicity, cell-based; details: read-out: Ratio ED50
Plasmodium falciparum [4] = assay: Antimalarial activity after 24 hrs against chloroquine-sensitive Plasmodium falciparum D6 infected type A+ human erythrocytes by [3H]hypoxanthine uptake; assay type: functional; details: read-out: ED50 (the source's name)
[5] = Selectivity index, ratio of ED50 for human COL1 cells to ED50 for chloroquine-resistant Plasmodium falciparum W2; assay type: toxicity, cell-based; details: read-out: Ratio ED50
[6] = Selectivity index, ratio of ED50 for human MEL2 cells to ED50 for chloroquine-resistant Plasmodium falciparum W2; assay type: toxicity, cell-based; details: read-out: Ratio ED50
[7] = Selectivity index, ratio of ED50 for human BCA1 cells to ED50 for chloroquine-sensitive Plasmodium falciparum D6; assay type: toxicity, cell-based; details: read-out: Ratio ED50
[8] = Cytotoxicity against human KB cells after 3 days by sulforhodamine B assay; assay type: cell-based; details: read-out: ED50
[9] = Cytotoxicity against human LNCAP cells after 3 days by sulforhodamine B assay; assay type: cell-based; details: read-out: ED50
in vitro [10] = details: mouse, P388 cells
Description: Selectivity index, ratio of ED50 for mice (Mus musculus) P388 cells to ED50 for chloroquine-sensitive Plasmodium falciparum D6

[11] = Selectivity index, ratio of ED50 for human MEL2 cells to ED50 for chloroquine-sensitive Plasmodium falciparum D6; assay type: toxicity, cell-based; details: read-out: Ratio ED50
[12] = Cytotoxicity against human BCA1 cells after 3 days by sulforhodamine B assay; assay type: cell-based; details: read-out: ED50
[13] = Cytotoxicity against human KBV1 cells after 3 days by sulforhodamine B assay; assay type: cell-based, KB-V1; details: read-out: ED50
[14] = Selectivity index, ratio of ED50 for human ZR-75-1 cells to ED50 for chloroquine-resistant Plasmodium falciparum W2; assay type: toxicity, cell-based; details: read-out: Ratio ED50
[15] = Cytotoxicity against human HT1080 cells after 3 days by sulforhodamine B assay; assay type: cell-based, HT-1080; details: read-out: ED50
[16] = Selectivity index, ratio of ED50 for human KB cells to ED50 for chloroquine-resistant Plasmodium falciparum W2; assay type: toxicity, cell-based; details: read-out: Ratio ED50
[17] = Selectivity index, ratio of ED50 for human LNCaP cells to ED50 for chloroquine-sensitive Plasmodium falciparum D6; assay type: toxicity, cell-based; details: read-out: Ratio ED50
[18] = Cytotoxicity against human ZR-75-1 cells after 3 days by sulforhodamine B assay; assay type: cell-based; details: read-out: ED50
[19] = Selectivity index, ratio of ED50 for human KB-V1 cells to ED50 for chloroquine-resistant Plasmodium falciparum W2; assay type: toxicity, cell-based; details: read-out: Ratio ED50
[20] = Cytotoxicity against human Col1 cells after 3 days by sulforhodamine B assay; assay type: cell-based; details: read-out: ED50
[21] = Selectivity index, ratio of ED50 for human ZR-75-1 cells to ED50 for chloroquine-sensitive Plasmodium falciparum D6; assay type: toxicity, cell-based; details: read-out: Ratio ED50
[22] = Ratio of ED50 for human KB cells to ED50 for human KBV1 cells; assay type: ADME, cell-based; details: KB cells and KBV1 cells, read-out: Ratio ED50
[23] = Selectivity index, ratio of ED50 for human LNCaP cells to ED50 for chloroquine-resistant Plasmodium falciparum W2; assay type: toxicity, cell-based; details: read-out: Ratio ED50
in vitro [24] = details: human, A431 cells
Description: Selectivity index, ratio of ED50 for human A431 cells to ED50 for chloroquine-resistant Plasmodium falciparum W2

[25] = Selectivity index, ratio of ED50 for human HT1080 cells to ED50 for chloroquine-sensitive Plasmodium falciparum D6; assay type: toxicity, cell-based, HT-1080; details: read-out: Ratio ED50
[26] = Selectivity index, ratio of ED50 for human BCA1 cells to ED50 for chloroquine-resistant Plasmodium falciparum W2; assay type: toxicity, cell-based; details: read-out: Ratio ED50
[27] = Selectivity index, ratio of ED50 for human HT1080 cells to ED50 for chloroquine-resistant Plasmodium falciparum W2; assay type: toxicity, cell-based, HT-1080; details: read-out: Ratio ED50
in vitro [28] = details: human, A431 cells; remark: listed apart in the source
Description: Selectivity index, ratio of ED50 for human A431 cells to ED50 for chloroquine-sensitive Plasmodium falciparum D6

[29] = Selectivity index, ratio of ED50 for human KB-V1 cells to ED50 for chloroquine-sensitive Plasmodium falciparum D6; assay type: toxicity, cell-based; details: read-out: Ratio ED50
[30] = Selectivity index, ratio of ED50 for human LUC1 cells to ED50 for chloroquine-sensitive Plasmodium falciparum D6; assay type: toxicity, cell-based; details: read-out: Ratio ED50
[31] = Cytotoxicity against human A431 cells after 3 days by sulforhodamine B assay; assay type: cell-based, A-431; details: read-out: ED50
[32] = Cytotoxicity against human LUC1 cells after 3 days by sulforhodamine B assay; assay type: cell-based; details: read-out: ED50
[33] = Selectivity index, ratio of ED50 for human KB cells to ED50 for chloroquine-sensitive Plasmodium falciparum D6; assay type: toxicity, cell-based; details: read-out: Ratio ED50
[34] = Cytotoxicity against human SK-MEL-2 cells after 3 days by sulforhodamine B assay; assay type: cell-based; details: read-out: ED50
in vitro [35] = details: mouse, P388 cells; remark: listed apart in the source
Description: Selectivity index, ratio of ED50 for mice (Mus musculus) P388 cells to ED50 for chloroquine-resistant Plasmodium falciparum W2

[36] = Selectivity index, ratio of ED50 for human COL1 cells to ED50 for chloroquine-sensitive Plasmodium falciparum D6; assay type: toxicity, cell-based; details: read-out: Ratio ED50

COc1ccc2cc1Oc1ccc(cc1)C[C@H]1c3c(cc(OC)c4c3Oc3cc5c(cc3O4)CCN(C)[C@@H]5C2)CCN1C
CC50 at 48 h [1]: 5.6 µg/mL (≈ 9.71 µM) | EC50 (Plasmodium falciparum [2]): 0.256 µg/mL (≈ 0.443 µM) | selectivity ratio [3]: 30 | EC50 (Plasmodium falciparum [4]): 0.0974 µg/mL (≈ 0.169 µM) | selectivity ratio [5]: 14 | selectivity ratio [6]: 34 | selectivity ratio [7]: 24 | CC50 at 72 h [8]: 4.8 µg/mL (≈ 8.32 µM) | CC50 at 72 h [9]: 2.1 µg/mL (≈ 3.64 µM) | selectivity ratio (in vitro [10]): 57 | selectivity ratio [11]: 89 | CC50 at 72 h [12]: 2.3 µg/mL (≈ 3.99 µM) | CC50 at 72 h [13]: 0.4 µg/mL (≈ 0.694 µM) | selectivity ratio [14]: 5 | CC50 at 72 h [15]: 2.2 µg/mL (≈ 3.81 µM) | selectivity ratio [16]: 19 | selectivity ratio [17]: 22 | CC50 at 72 h [18]: 1.2 µg/mL (≈ 2.08 µM) | selectivity ratio [19]: 2 | CC50 at 72 h [20]: 3.6 µg/mL (≈ 6.24 µM) | selectivity ratio [21]: 12 | selectivity ratio [22]: 10 | selectivity ratio [23]: 8 | selectivity ratio (in vitro [24]): 10 | selectivity ratio [25]: 23 | selectivity ratio [26]: 9 | selectivity ratio [27]: 9 | selectivity ratio (in vitro [28]): 27 | selectivity ratio [29]: 4 | selectivity ratio [30]: 79 | CC50 at 72 h [31]: 2.6 µg/mL (≈ 4.51 µM) | CC50 at 72 h [32]: 7.7 µg/mL (≈ 13.4 µM) | selectivity ratio [33]: 49 | CC50 at 72 h [34]: 8.7 µg/mL (≈ 15.1 µM) | selectivity ratio (in vitro [35]): 22 | selectivity ratio [36]: 37

COc1ccc2cc1Oc1ccc(cc1)C[C@H]1c3cc(c(OC)cc3CCN1C)Oc1c(OC)c(OC)cc3c1[C@@H](C2)NCC3
CC50 at 48 h [1]: 4.7 µg/mL (≈ 7.72 µM) | EC50 (Plasmodium falciparum [2]): 0.0453 µg/mL (≈ 0.0744 µM) | selectivity ratio [3]: 216 | EC50 (Plasmodium falciparum [4]): 0.0661 µg/mL (≈ 0.109 µM) | selectivity ratio [5]: 168 | selectivity ratio [6]: 181 | selectivity ratio [7]: 67 | CC50 at 72 h [8]: 6.3 µg/mL (≈ 10.3 µM) | CC50 at 72 h [9]: 4.1 µg/mL (≈ 6.74 µM) | selectivity ratio (in vitro [10]): 71 | selectivity ratio [11]: 124 | CC50 at 72 h [12]: 4.4 µg/mL (≈ 7.23 µM) | CC50 at 72 h [13]: 2.8 µg/mL (≈ 4.6 µM) | selectivity ratio [14]: 40 | CC50 at 72 h [15]: 7.5 µg/mL (≈ 12.3 µM) | selectivity ratio [16]: 139 | selectivity ratio [17]: 62 | CC50 at 72 h [18]: 1.8 µg/mL (≈ 2.96 µM) | selectivity ratio [19]: 62 | CC50 at 72 h [20]: 7.6 µg/mL (≈ 12.5 µM) | selectivity ratio [21]: 27 | selectivity ratio [23]: 91 | selectivity ratio (in vitro [24]): 104 | selectivity ratio [25]: 114 | selectivity ratio [26]: 97 | selectivity ratio [27]: 166 | selectivity ratio (in vitro [28]): 71 | selectivity ratio [29]: 42 | selectivity ratio [30]: 148 | CC50 at 72 h [31]: 4.7 µg/mL (≈ 7.72 µM) | CC50 at 72 h [32]: 9.8 µg/mL (≈ 16.1 µM) | selectivity ratio [33]: 95 | CC50 at 72 h [34]: 8.2 µg/mL (≈ 13.5 µM) | selectivity ratio (in vitro [35]): 104 | selectivity ratio [36]: 115
